Test results from patent publication US4394446A, “Process for the preparation of the antibiotic oxanosine” (Zaidan Hojin Biseibutsu Kagaku Kenkyu Kai, priority 1980, dated 1983).
≈ marks a conversion by molar mass, not a printed value. Entries after “also recorded” stand apart in the source; their conditions may differ.

Key:
[1] = tested on: Pseudomonas aeruginosa A3; experiment: Antimicrobial spectrum in 0.5% peptone agar; type: cell-based; conditions: read-out: Minimum Growth Inhibition Concentration
[2] = tested on: Staphylococcus aureus, Smith strain; experiment: Antimicrobial spectrum in 0.5% peptone agar; type: cell-based; conditions: read-out: Minimum Growth Inhibition Concentration
[3] = tested on: Corynebacterium bovis 1810; experiment: Antimicrobial spectrum in 0.5% peptone agar; type: cell-based; conditions: read-out: Minimum Growth Inhibition Concentration
Gram-positive bacteria = experiment: Antimicrobial spectrum, summary; type: cell-based; conditions: 0.5% peptone agar; words
[4] = tested on: Micrococcus flavis FDA 16; experiment: Antimicrobial spectrum in 0.5% peptone agar; type: cell-based; conditions: FDA16, read-out: Minimum Growth Inhibition Concentration
Escherichia coli K-12 [5] = experiment: Antimicrobial spectrum in 0.5% peptone agar; type: cell-based; conditions: K12, read-out: Minimum Growth Inhibition Concentration
Gram-negative bacteria = experiment: Antimicrobial spectrum, summary; type: cell-based; conditions: 0.5% peptone agar; words
Proteus vulgaris OX 19 = experiment: Antimicrobial spectrum in 0.5% peptone agar; type: cell-based; conditions: OX19, read-out: Minimum Growth Inhibition Concentration
[6] = tested on: Klebsiella pneumoniae PCI 602; experiment: Antimicrobial spectrum in 0.5% peptone agar; type: cell-based; conditions: PCI602, read-out: Minimum Growth Inhibition Concentration
Mouse Leukemia L-1210 = experiment: Effect against mouse leukemia L-1210, life-prolonging effect; type: in vivo, mouse (female, CDF series); conditions: ip, once each day for 9 days
Experimental: Cells (1×10^5) of leukemia L-1210 were intraperitoneally implanted in each of several groups of 8-week-old female mice of the CDF series (5 mice for each group), a solution of oxanosine in a physiological saline solution was intraperitoneally administered once each day for 9 days, and the carcinostatic effect was evaluated based on the life-prolonging effect (T/C, %).

[7] = Carcinostatic activity (general statement); conditions: words
Solubility in solvents = type: physicochemical
[8] = tested on: Bacillus subtilis PCI 219; experiment: Antimicrobial spectrum in 0.5% peptone agar; type: cell-based; conditions: PCI219, read-out: Minimum Growth Inhibition Concentration
Proteus rettgeri GN 466 = experiment: Antimicrobial spectrum in 0.5% peptone agar; type: cell-based; conditions: Providencia rettgeri, GN466, read-out: Minimum Growth Inhibition Concentration
Shigella sonnei JS 11746 = experiment: Antimicrobial spectrum in 0.5% peptone agar; type: cell-based; conditions: JS11746, read-out: Minimum Growth Inhibition Concentration
Candida albicans 3147 = experiment: Antimicrobial spectrum in 0.5% peptone agar; type: cell-based; conditions: read-out: Minimum Growth Inhibition Concentration
[9] = tested on: Shigella flexneri 4B JS 11811; experiment: Antimicrobial spectrum in 0.5% peptone agar; type: cell-based; conditions: 4BJS11811, read-out: Minimum Growth Inhibition Concentration
[10] = tested on: Shigella dysenteriae JS 11910; experiment: Antimicrobial spectrum in 0.5% peptone agar; type: cell-based; conditions: JS11910, read-out: Minimum Growth Inhibition Concentration
Escherichia coli NIHJ = experiment: Antimicrobial spectrum in 0.5% peptone agar; type: cell-based; conditions: read-out: Minimum Growth Inhibition Concentration
[11] = tested on: Staphylococcus aureus FDA 209P; experiment: Antimicrobial spectrum in 0.5% peptone agar; type: cell-based; conditions: FDA209P, read-out: Minimum Growth Inhibition Concentration
Sarcina lutea PCI 1001 = experiment: Antimicrobial spectrum in 0.5% peptone agar; type: cell-based; conditions: Micrococcus luteus, PCI1001, read-out: Minimum Growth Inhibition Concentration
[12] = tested on: Mycobacterium smegmatis 607; experiment: Antimicrobial spectrum in 0.5% peptone agar; type: cell-based; conditions: Mycolicibacterium smegmatis, read-out: Minimum Growth Inhibition Concentration
[13] = Acute toxicity in the mouse; type: in vivo; conditions: iv
[14] = tested on: Salmonella enteritidis 1891; experiment: Antimicrobial spectrum in 0.5% peptone agar; type: cell-based; conditions: Salmonella enterica, read-out: Minimum Growth Inhibition Concentration
Serratia marcescens = experiment: Antimicrobial spectrum in 0.5% peptone agar; type: cell-based; conditions: read-out: Minimum Growth Inhibition Concentration
Proteus rettgeri GN 311 = experiment: Antimicrobial spectrum in 0.5% peptone agar; type: cell-based; conditions: Providencia rettgeri, GN311, read-out: Minimum Growth Inhibition Concentration
[15] = Antiviral activity (general statement); conditions: words, no test described
[16] = tested on: Bacillus subtilis NRRLB-558; experiment: Antimicrobial spectrum in 0.5% peptone agar; type: cell-based; conditions: NRRLB558, read-out: Minimum Growth Inhibition Concentration
[17] = tested on: Proteus mirabilis IFM OM-9; experiment: Antimicrobial spectrum in 0.5% peptone agar; type: cell-based; conditions: IFMOM9, read-out: Minimum Growth Inhibition Concentration
Escherichia coli K-12 [18] = experiment: Titer by cup method on peptone-agar plate; type: cell-based; conditions: crystals; titer of culture filtrate designated as 1 u/ml
Experimental: Sakaguchi flasks (500 ml capacity) for a reciprocating type shaking machine were charged with 125 ml of a culture medium (pH value=7.0) comprising 1% of glucose, 1% of glycerol, 1% of sucrose, 0.5% of oat meal, 2% of soybean meal (Prorich supplied by Ajinomoto K.K.), 1% of pressed yeast (supplied by Oriental Kobo Kogyo K.K.), 0.5% of Casamino acid (supplied by Difco Co.) and 0.1% of calcium carbonate, and the culture medium was sterilized at 120° C. for 20 minutes in an autoclave. The culture medium in each was inoculated with one platinum loop of MG265-CF3 (Fermentation Research Institute Deposit No. 5735), and culturing was carried out for 2 days at 28° C. with shaking at 120 rpm. […] (The titer was determined according to the cup method using Escherichia coli K-12 as a test organism on peptone-agar plate, and the titer of the culture filtrate was designated as 1 u/ml.) The filtrate was passed through a column packed with 500 ml of active carbon powder for chromatography (supplied by Wako Junyaku) to absorb the oxanosine on the active carbon. […]

Salmonella typhi T-63 = experiment: Antimicrobial spectrum in 0.5% peptone agar; type: cell-based; conditions: Salmonella enterica, read-out: Minimum Growth Inhibition Concentration
[19] = tested on: Escherichia coli ML1629 (multi-resistant strain); experiment: Antimicrobial spectrum in 0.5% peptone agar; type: cell-based; conditions: read-out: Minimum Growth Inhibition Concentration
HeLa = experiment: Anti-HeLa activity; type: cell-based; conditions: 72 hours' culturing
Experimental: *number of cells after 72 hours' culturing in the presence of oxanosine

Compound `Nc1nc2c(ncn2[C@@H]2O[C@H](CO)[C@@H](O)[C@H]2O)c(=O)o1` [oxanosine] has an MIC [1] greater than 100 µg/mL, an MIC [2] greater than 100 µg/mL and an MIC [3] greater than 100 µg/mL. For the same compound, the “growth-inhibiting action against Gram-positive bacteria” value (Gram-positive bacteria) was “does not show growth-inhibiting action”, the MIC [4] was greater than 100 µg/mL and the MIC (Escherichia coli K-12 [5]) was 12.5 µg/mL (≈ 44 µM). For the same compound, the “growth-inhibiting action against Gram-negative bacteria” value (Gram-negative bacteria) was “relatively strong growth-inhibiting action; also recorded: relatively strong inhibitory activity”, the MIC (Proteus vulgaris OX 19) was 25 µg/mL (≈ 88 µM) and the MIC [6] was greater than 100 µg/mL. For the same compound, the “Life-Prolonging Effect (T/C, %)” value (Mouse Leukemia L-1210; 62.5 μg/mouse/day) was 100%, the “Life-Prolonging Effect (T/C, %)” value (Mouse Leukemia L-1210; 125 μg/mouse/day) was 120% and the “Life-Prolonging Effect (T/C, %)” value (Mouse Leukemia L-1210; 250 μg/mouse/day) was 120%. The “Life-Prolonging Effect (T/C, %)” value (Mouse Leukemia L-1210; 500 μg/mouse/day) was 153%, the “Life-Prolonging Effect (T/C, %)” value (Mouse Leukemia L-1210; 1000 μg/mouse/day) was 160% and the “life-prolonging effect in leukemia L-1210 tumor-bearing mice” value (Mouse Leukemia L-1210; words) was “has a life-prolonging effect”. The carcinostatic activity [7] was “has carcinostatic and antiviral activity; also recorded: has carcinostatic and antiviral actions”, the “Solubility in Solvents” value (Solubility in solvents; organic solvents such as ethanol, acetone, ethyl acetate (b147 only), ether, benzene) was “insoluble or only slightly soluble” and the “Solubility in Solvents” value (Solubility in solvents; water, methanol and dimethylsulfoxide) was “Soluble”. It also gave an MIC [8] greater than 100 µg/mL, an MIC (Proteus rettgeri GN 466) of 12.5 µg/mL (≈ 44 µM) and an MIC (Shigella sonnei JS 11746) of 25 µg/mL (≈ 88 µM). The MIC (Candida albicans 3147) was greater than 100 µg/mL, the MIC [9] was 6.25 µg/mL (≈ 22 µM) and the MIC [10] was 25 µg/mL (≈ 88 µM). It also gave an MIC (Escherichia coli NIHJ) greater than 100 µg/mL, an MIC [11] greater than 100 µg/mL and an MIC (Sarcina lutea PCI 1001) greater than 100 µg/mL. For the same compound, the MIC [12] was greater than 100 µg/mL, the LD50 ([13]; in vivo) was greater than 200 mg/kg and the “acute toxicity compared with various known nucleic acid type antibiotic substances” value ([13]; words) was “lower than those of various known nucleic acid type antibiotic substances”. For the same compound, the MIC [14] was greater than 100 µg/mL, the MIC (Serratia marcescens) was greater than 100 µg/mL and the MIC (Proteus rettgeri GN 311) was greater than 100 µg/mL. For the same compound, the antiviral activity [15] was “has carcinostatic and antiviral activity; also recorded: has carcinostatic and antiviral actions”, the MIC [16] was greater than 100 µg/mL and the MIC [17] was 12.5 µg/mL (≈ 44 µM). For the same compound, the titer (Escherichia coli K-12 [18]) was 117 u/mg, the MIC (Salmonella typhi T-63) was greater than 100 µg/mL and the MIC [19] was 25 µg/mL (≈ 88 µM). For the same compound, the Cells (HeLa; 0.1 mcg/ml) was 11.70 × 10^5 /plate, the Cells (HeLa; 1 mcg/ml) was 10.31 × 10^5 /plate and the Cells (HeLa; 10 mcg/ml) was 8.68 × 10^5 /plate. For the same compound, the Cells (HeLa; 100 mcg/ml) was 1.08 × 10^5 /plate, the inhibition at 0.1 µg/mL (HeLa; Homo sapiens, HeLa, 0.1 mcg/ml, read-out: Percent Inhibition) was 1.76% and the inhibition at 1 µg/mL (HeLa; Homo sapiens, HeLa, 1 mcg/ml, read-out: Percent Inhibition) was 15.3%. The inhibition at 10 µg/mL (HeLa; Homo sapiens, HeLa, 10 mcg/ml, read-out: Percent Inhibition) was 31.2%, the inhibition at 100 µg/mL (HeLa; Homo sapiens, HeLa, 100 mcg/ml, read-out: Percent Inhibition) was 100% and the IC50 (HeLa; Homo sapiens, HeLa) was roughly 30.9 µg/mL (≈ 109 µM).
